Here are results for five compounds from patent US11981658B2, “Substituted aminopyridine compounds as EGFR inhibitors” (YUHAN CORPORATION, priority 2021, dated 2024).

Each structure is given as a SMILES string. Like-named read-outs stand apart in the source and are kept apart here.

Assay [1] concerns the target EGFR wildtype (WT) (Homo sapiens, UniProt P00533). Nature of the assay: Biochemical EGFR kinase inhibition assay (Lance Ultra TR-FRET), wildtype. Summed up:
(§1)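 Enzyme reactions lasted 1 hour at room temperature with test compounds between 0.003 and 10 μM, followed by 10 mM EDTA quench.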

Assay [2] has as its target EGFR L858R/T790M/C797S (Homo sapiens, UniProt P00533, C797S/L858R/T790M). The assay can be described thus: Biochemical EGFR kinase inhibition assay (Lance Ultra TR-FRET), triple mutant L858R/T790M/C797S. An outline of the steps: as §1
For assay [3], the target named is EGFR Del19/T790M/C797S (Homo sapiens, UniProt P00533, C797S/DEL746-750/T790M). The assay can be described thus: Biochemical EGFR kinase inhibition assay (Lance Ultra TR-FRET), triple mutant del19/T790M/C797S. An outline of the steps:
as §1

Assay [4] has as its target EGFR L858R/C797S (Homo sapiens, UniProt P00533, C797S/L858R). The assay can be described thus: Biochemical EGFR kinase inhibition assay (Lance Ultra TR-FRET), double mutant L858R/C797S. The protocol: Biochemical EGFR kinase assays were conducted using Lance Ultra time-resolved fluorescence resonance energy transfer (TR-FRET) technology from Perkin-Elmer. Compounds of the invention were initially diluted to 20 mM in 100% DMSO for storage and made into kinase buffer solution to create a compound concentration ranging from 0.003 μM and 10 μM.
Each kinase reactions were incubated at room temperature for 1 hour and then stopped by the addition of 4 μL of stop solution (10 mM EDTA). The specific Europium-labeled-anti-phosphopeptide antibody (PerkinElmer, AD0069) diluted in LANCE detection buffer was then added to a final concentration of 2 nM. After 60 minutes incubation at room temperature the LANCE signal was measured on an EnVision Multilabel Reader (Perkin-Elmer). Excitation wavelength was set at 320 nm and emission monitored at 615 nm (donor) and 665 nm (acceptor). The IC50 values were determined using GraphPad prism software (GraphPad Software, Inc., San Diego, CA, USA).

Assay [5] concerns the target EGFR Del19/C797S (Homo sapiens, UniProt P00533, C797S/DEL746-750). Nature of the assay: Biochemical EGFR kinase inhibition assay (Lance Ultra TR-FRET), double mutant del19/C797S. An outline of the steps: as §1
The mark [6] stands for this setting: IC50 L858R/T790M/C797S (nM), 100 μM ATP.
Where [7] appears, read: IC50 Del19/T790M/C797S (nM), 100 μM ATP.
Where [8] appears, read: IC50 L858R/C797S (nM), 100 μM ATP.
The mark [9] stands for this setting: IC50 Del19/C797S (nM), 100 μM ATP.
Setting [10] is: Km ATP, read-out: IC50 WT (nM), Km ATP.
The mark [11] stands for this setting: Km ATP, read-out: IC50 L858R/T790M/C797S (nM), Km ATP.
Setting [12] is: Km ATP, read-out: IC50 Del19/T790M/C797S (nM), Km ATP.
Where [13] appears, read: Km ATP, read-out: IC50 L858R/C797S (nM), Km ATP.
Where [14] appears, read: Km ATP, read-out: IC50 Del19/C797S (nM), Km ATP.

Chain of EGFR Del19/C797S (P00533 with tags, fused parts or gaps DEL746-750/C797S): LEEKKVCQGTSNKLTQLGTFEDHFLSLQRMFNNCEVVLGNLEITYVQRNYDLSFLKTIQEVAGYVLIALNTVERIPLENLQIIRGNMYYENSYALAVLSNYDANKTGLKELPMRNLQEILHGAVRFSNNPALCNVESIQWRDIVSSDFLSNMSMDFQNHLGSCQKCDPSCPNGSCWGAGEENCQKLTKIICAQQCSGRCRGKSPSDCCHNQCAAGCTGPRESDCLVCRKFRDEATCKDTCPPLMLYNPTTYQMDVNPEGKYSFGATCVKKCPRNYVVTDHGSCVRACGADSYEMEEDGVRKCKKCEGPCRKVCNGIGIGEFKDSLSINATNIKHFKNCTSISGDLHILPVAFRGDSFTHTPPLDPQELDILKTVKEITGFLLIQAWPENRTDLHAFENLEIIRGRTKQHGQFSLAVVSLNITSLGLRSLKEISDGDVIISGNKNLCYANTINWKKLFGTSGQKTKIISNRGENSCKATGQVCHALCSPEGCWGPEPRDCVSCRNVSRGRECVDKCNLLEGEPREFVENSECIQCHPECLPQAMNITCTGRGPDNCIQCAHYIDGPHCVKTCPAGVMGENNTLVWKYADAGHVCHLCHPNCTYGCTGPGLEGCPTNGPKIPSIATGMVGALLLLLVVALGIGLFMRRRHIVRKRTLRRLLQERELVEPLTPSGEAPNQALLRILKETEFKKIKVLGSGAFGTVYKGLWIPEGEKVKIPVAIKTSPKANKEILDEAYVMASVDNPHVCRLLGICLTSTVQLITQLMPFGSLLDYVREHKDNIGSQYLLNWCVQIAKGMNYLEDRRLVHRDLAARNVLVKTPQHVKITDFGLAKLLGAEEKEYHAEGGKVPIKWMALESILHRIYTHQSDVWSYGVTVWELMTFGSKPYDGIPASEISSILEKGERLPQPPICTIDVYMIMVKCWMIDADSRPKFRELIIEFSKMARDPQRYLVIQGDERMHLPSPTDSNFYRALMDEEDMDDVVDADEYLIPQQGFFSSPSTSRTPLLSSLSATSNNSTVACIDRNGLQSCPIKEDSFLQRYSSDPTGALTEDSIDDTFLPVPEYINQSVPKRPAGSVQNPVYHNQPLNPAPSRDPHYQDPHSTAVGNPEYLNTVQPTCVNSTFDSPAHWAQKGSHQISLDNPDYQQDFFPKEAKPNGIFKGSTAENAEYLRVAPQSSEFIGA
Chain of EGFR L858R/C797S (P00533 25-1210 C797S/L858R): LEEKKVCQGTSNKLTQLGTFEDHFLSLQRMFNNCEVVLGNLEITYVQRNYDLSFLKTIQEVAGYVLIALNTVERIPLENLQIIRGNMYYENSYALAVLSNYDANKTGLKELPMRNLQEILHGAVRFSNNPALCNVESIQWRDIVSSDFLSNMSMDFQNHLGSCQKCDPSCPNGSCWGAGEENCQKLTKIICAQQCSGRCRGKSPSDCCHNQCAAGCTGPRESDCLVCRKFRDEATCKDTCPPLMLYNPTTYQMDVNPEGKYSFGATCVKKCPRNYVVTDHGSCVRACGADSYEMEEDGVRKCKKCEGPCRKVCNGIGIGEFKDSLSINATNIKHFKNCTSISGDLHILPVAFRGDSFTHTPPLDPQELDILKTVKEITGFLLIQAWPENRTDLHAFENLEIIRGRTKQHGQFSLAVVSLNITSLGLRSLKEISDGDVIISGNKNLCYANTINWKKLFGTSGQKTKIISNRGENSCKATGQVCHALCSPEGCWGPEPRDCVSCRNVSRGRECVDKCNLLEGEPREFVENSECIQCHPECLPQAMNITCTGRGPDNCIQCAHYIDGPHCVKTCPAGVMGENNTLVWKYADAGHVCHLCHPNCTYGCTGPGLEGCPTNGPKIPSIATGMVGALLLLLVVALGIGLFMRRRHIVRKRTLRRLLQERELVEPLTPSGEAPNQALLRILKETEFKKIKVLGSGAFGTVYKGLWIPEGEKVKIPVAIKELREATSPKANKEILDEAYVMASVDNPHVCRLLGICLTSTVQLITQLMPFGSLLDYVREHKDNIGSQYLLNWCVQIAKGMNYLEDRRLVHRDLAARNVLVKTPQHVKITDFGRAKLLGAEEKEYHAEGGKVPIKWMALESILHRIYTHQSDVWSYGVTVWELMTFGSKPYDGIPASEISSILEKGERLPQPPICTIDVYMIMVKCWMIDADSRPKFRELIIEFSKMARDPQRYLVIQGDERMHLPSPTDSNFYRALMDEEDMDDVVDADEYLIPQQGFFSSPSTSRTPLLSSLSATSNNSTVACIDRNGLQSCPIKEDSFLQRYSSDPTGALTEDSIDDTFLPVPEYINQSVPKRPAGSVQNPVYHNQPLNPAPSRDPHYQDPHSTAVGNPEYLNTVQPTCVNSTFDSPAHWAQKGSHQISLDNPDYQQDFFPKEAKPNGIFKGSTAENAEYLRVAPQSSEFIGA
Chain of EGFR Del19/T790M/C797S (P00533 with tags, fused parts or gaps DEL746-750/T790M/C797S): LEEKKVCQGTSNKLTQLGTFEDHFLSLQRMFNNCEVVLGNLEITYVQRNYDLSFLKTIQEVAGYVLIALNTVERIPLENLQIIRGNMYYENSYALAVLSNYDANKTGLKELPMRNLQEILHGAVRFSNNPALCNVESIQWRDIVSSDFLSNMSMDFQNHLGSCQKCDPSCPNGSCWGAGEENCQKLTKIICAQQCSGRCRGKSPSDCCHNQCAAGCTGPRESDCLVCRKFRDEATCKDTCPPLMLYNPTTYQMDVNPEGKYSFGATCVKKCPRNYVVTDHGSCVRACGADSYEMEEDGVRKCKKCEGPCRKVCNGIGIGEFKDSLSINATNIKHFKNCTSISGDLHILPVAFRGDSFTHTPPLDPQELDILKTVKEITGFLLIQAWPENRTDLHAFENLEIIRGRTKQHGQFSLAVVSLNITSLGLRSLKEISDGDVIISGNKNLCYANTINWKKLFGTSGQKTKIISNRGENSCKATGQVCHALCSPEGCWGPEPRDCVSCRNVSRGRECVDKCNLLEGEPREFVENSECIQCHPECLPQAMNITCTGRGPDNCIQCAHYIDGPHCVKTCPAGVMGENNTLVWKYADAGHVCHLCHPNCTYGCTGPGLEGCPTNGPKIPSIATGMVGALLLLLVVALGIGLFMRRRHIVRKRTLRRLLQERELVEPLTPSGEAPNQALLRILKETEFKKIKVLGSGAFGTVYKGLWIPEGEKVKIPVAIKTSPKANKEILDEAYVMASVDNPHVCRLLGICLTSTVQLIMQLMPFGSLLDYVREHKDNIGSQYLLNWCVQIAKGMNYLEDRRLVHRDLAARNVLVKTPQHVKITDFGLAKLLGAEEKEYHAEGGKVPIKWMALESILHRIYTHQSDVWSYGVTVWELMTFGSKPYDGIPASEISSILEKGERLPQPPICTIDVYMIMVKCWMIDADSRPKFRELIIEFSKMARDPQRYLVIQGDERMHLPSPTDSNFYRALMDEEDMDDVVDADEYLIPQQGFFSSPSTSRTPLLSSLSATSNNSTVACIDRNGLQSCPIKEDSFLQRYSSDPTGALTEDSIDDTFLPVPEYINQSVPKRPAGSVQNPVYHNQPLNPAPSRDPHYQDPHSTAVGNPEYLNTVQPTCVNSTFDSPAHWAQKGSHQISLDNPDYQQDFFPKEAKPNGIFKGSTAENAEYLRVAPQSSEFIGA
Chain of EGFR wildtype (WT) (P00533 25-1210): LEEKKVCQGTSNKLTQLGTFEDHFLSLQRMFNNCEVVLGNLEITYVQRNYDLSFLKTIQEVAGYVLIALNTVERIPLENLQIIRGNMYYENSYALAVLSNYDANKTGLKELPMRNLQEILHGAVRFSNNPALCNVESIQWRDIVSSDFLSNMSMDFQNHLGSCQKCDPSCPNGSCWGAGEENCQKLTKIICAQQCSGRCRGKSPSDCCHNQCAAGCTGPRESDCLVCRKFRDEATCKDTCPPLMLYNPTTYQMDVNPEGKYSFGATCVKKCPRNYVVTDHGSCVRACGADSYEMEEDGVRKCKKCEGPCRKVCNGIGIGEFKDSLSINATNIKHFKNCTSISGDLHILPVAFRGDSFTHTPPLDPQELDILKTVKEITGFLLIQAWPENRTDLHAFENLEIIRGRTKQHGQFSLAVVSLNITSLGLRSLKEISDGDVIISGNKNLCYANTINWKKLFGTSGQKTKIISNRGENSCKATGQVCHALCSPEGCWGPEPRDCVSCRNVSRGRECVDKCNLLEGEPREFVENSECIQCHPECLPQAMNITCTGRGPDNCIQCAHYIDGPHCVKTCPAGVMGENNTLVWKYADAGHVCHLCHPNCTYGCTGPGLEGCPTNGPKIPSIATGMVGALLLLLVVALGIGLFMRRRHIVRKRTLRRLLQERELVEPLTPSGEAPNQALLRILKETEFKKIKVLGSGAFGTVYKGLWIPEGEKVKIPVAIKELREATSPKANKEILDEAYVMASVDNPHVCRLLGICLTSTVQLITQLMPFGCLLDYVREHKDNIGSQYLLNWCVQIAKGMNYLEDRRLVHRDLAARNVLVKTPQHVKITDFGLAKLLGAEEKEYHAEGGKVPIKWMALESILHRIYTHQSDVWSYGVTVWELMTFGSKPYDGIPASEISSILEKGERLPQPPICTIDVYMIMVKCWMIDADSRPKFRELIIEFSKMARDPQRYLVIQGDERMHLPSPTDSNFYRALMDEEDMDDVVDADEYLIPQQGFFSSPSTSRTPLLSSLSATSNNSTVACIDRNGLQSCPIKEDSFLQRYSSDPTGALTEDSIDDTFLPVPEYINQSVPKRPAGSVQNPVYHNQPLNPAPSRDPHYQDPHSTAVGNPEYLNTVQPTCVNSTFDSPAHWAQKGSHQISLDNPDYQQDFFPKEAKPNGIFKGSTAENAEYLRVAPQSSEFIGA

As for `Cn1cc(C#Cc2cnc(Nc3ccnc(-c4cnn(S(=O)(=O)C5CC5)c4)n3)cc2N2CCC(C(C)(C)CO)CC2)cn1` [Example 14, 2-(1-(2-((2-(1-(Cyclopropylsulfonyl)-1H-pyrazol-4-yl)pyrimidin-4-yl)amino)-5-((1-methyl-1H-pyrazol-4-yl)ethynyl)pyridin-4-yl)piperidin-4-yl)-2-methylpropan-1-ol], the IC50 in assay [1] (IC50 WT (nM), 100 μM ATP) is greater than 10000 nM; in assay [2] (setting [6]), 3 nM; in assay [3] (setting [7]), 3.9 nM; in assay [4] (setting [8]), 41 nM; in assay [5] (setting [9]), 21.7 nM.

Take `C[C@]1(O)CCCN(c2cc(Nc3ccnc(-c4cnn(S(=O)(=O)C5CC5)c4)n3)ncc2C#Cc2cnn(CCF)c2)C1` [Example 447, (S)-1-(2-((2-(1-(Cyclopropylsulfonyl)-1H-pyrazol-4-yl)pyrimidin-4-yl)amino)-5-((1-(2-fluoroethyl)-1H-pyrazol-4-yl)ethynyl)pyridin-4-yl)-3-methylpiperidin-3-ol]: the IC50 was greater than 10000 nM in assay [1] (IC50 WT (nM), 100 μM ATP); 16.9 nM in assay [1] (setting [10]); 0.5 nM in assay [2] (setting [6]); 0.2 nM in assay [2] (setting [11]); 0.4 nM in assay [3] (setting [7]); 0.3 nM in assay [3] (setting [12]). Besides, the IC50 was 59.8 nM in assay [4] (setting [8]), 3.5 nM in assay [4] (setting [13]), 2.1 nM in assay [5] (setting [9]) and 1.5 nM in assay [5] (setting [14]).

Turning to `CC1(CO)CCN(c2cc(Nc3ccnc(-c4cnn(S(=O)(=O)C5CC5)c4)n3)ncc2C#Cc2ccccc2F)CC1` [Example 257, (1-(2-((2-(1-(Cyclopropylsulfonyl)-1H-pyrazol-4-yl)pyrimidin-4-yl)amino)-5-((2-fluorophenyl)ethynyl)pyridin-4-yl)-4-methylpiperidin-4-yl)methanol], the IC50 in assay [1] (IC50 WT (nM), 100 μM ATP) is greater than 10000 nM; in assay [2] (setting [6]), 23.1 nM; in assay [3] (setting [7]), 19.4 nM; in assay [4] (setting [8]), 143 nM; in assay [5] (setting [9]), 10.7 nM.

For the compound `CN1CCC2(CC1)CCN(c1cc(Nc3ccnc(-c4cnn(S(=O)(=O)C5CC5)c4)n3)ncc1C#Cc1cnn(C)c1)CC2` [Example 318, 2-(1-(Cyclopropylsulfonyl)-1H-pyrazol-4-yl)-N-(5-((1-methyl-1H-pyrazol-4-yl)ethynyl)-4-(9-methyl-3,9-diazaspiro[5.5]undecan-3-yl)pyridin-2-yl)pyrimidin-4-amine], the IC50 stood at 5990 nM in assay [1] (IC50 WT (nM), 100 μM ATP); 0.4 nM in assay [2] (setting [6]); 0.3 nM in assay [3] (setting [7]); 18.4 nM in assay [4] (setting [8]); 4.2 nM in assay [5] (setting [9]).

Consider `O=S(=O)(C1CC1)n1cc(-c2nccc(Nc3cc(NC4CCC(CO)CC4)c(C#CC4CCCO4)cn3)n2)cn1` (centres unmarked) [Example 374, ((1s,4s)-4-((2-((2-(1-(Cyclopropylsulfonyl)-1H-pyrazol-4-yl)pyrimidin-4-yl)amino)-5-((tetrahydrofuran-2-yl)ethynyl)pyridin-4-yl)amino)cyclohexyl)methanol], for which the IC50 in assay [1] (IC50 WT (nM), 100 μM ATP) turned out to be 9810 nM; in assay [1] (setting [10]), 10.4 nM; in assay [2] (setting [6]), 0.6 nM; in assay [2] (setting [11]), 0.3 nM; in assay [3] (setting [7]) it was 0.3 nM; in assay [3] (setting [12]), 0.3 nM. Also, the IC50 in assay [4] (setting [8]) came out at 75.1 nM; in assay [4] (setting [13]), 4.1 nM; in assay [5] (setting [9]), 2.4 nM; in assay [5] (setting [14]) it was 1.3 nM.
